# Measured values from the supplement of paper PMC11451515.
# Legend:
# Experiment in all cases: AUC of viability dose-response curve (% viability x log10 dose units); higher = less sensitive
# Conditions in all cases: 48 h
# [1] = system: P12-Ichikawa
# Summary of the method: (§1)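 Area under the curve was integrated by trapezoidal rule from a log-logistic fit of normalised viability, with curves exceeding full viability scaled and quality-control failures removed. The fit had four parameters over log10 doses. Viability came from CellTiter-Glo One luminescence, normalised per plate to DMSO and cell-free wells, after leukemia cells adapted to each medium (500 or 1000 cells/well, 1536-well plates) were exposed to library compounds in DMSO for 48 h at 37°C. The 11 threefold doses ran from 47 μM to 0.79 nM.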
# [2] = system: NOMO1
# Summary of the method: as §1
# [3] = system: SEM cells
# Summary of the method: as §1
# [4] = RPMI 5 mM glucose + 10% dialyzed FBS
SMILES,AUC of viability dose-response curve ([1]; HPLM + 10% dialyzed FBS),AUC of viability dose-response curve ([1]; RPMI 5 mM glucose + 10% FBS),"AUC of viability dose-response curve [1, 4]",AUC of viability dose-response curve ([2]; HPLM + 10% dialyzed FBS),AUC of viability dose-response curve ([2]; RPMI 5 mM glucose + 10% FBS),"AUC of viability dose-response curve [2, 4]",AUC of viability dose-response curve ([3]; HPLM + 10% dialyzed FBS),AUC of viability dose-response curve ([3]; RPMI 5 mM glucose + 10% FBS),"AUC of viability dose-response curve [3, 4]"
CCN(CC)CCCCNc1ncc2c(n1)N(C)C(=O)N(c1c(Cl)c(OC)cc(OC)c1Cl)C2,450,446,448,429,453,451,423,421,422
CC[C@@]1(O)C(=O)OCC/2=C1/C=C3\N(CC4=CC5=CC(=CC=C5N=C34)O)C2=O,180,176,181,251,261,271,,,
CC(C)c1cnn2c(NCc3ccccc3)cc(NCCCCCCN)nc12,464,442,439,464,470,463,465,416,471
CNCc1ccc(-c2[nH]c3cc(F)cc4c3c2CCNC4=O)cc1,470,474,467,474,466,461,439,434,460
CN[C@@H]1Cc2cccc3[nH]c(=O)n(c23)C1,449,445,456,455,450,458,442,454,452
COc1cc2nc(N3CCN(C(=O)C4CCCO4)CC3)nc(N)c2cc1OC (stereo not given),447,470,445,473,471,458,430,460,418
C[S+](=O)([O-])c1cccc(CNc2nc(Nc3ccc4c(c3)CCC(=O)N4)ncc2C(F)(F)F)c1,450,444,451,436,446,454,331,367,355
Nc1cc(C(F)(F)F)c(-c2cc(N3CCOCC3)nc(N3CCOCC3)n2)cn1,328,334,329,317,340,334,307,283,299
C[S+](=O)([O-])c1ccc(C(=O)Nc2ccc(Cl)c(-c3ccccn3)c2)c(Cl)c1,464,454,462,445,468,465,,,
